Test [1] is filed under the species Bos taurus. Nature of the test: Ability to inhibit 3H substance P binding to bovine retina was evaluated. Format: functional.
Test [2] concerns the target T1, Endothelin receptor type B (Sus scrofa, UniProt P35463).
T1 sequence (P35463 whole entry): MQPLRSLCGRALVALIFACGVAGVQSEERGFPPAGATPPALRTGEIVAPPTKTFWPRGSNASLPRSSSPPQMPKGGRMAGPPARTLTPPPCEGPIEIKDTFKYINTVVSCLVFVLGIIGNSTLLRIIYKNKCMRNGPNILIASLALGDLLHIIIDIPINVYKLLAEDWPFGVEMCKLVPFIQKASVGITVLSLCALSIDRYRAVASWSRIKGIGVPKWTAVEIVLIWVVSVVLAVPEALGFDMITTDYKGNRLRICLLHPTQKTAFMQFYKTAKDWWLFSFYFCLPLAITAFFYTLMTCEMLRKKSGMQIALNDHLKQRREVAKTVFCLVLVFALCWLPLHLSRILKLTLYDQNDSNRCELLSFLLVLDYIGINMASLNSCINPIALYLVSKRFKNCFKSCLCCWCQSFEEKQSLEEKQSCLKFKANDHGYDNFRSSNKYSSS
Put plainly: Ability to inhibit [125I]ET-3 binding to the Endothelin B receptor from porcine lung membranes was evaluated. Format: tissue-based.

The target of test [3] is T2, Endothelin-1 receptor (Sus scrofa, UniProt Q29010).
T2 sequence (Q29010 whole entry): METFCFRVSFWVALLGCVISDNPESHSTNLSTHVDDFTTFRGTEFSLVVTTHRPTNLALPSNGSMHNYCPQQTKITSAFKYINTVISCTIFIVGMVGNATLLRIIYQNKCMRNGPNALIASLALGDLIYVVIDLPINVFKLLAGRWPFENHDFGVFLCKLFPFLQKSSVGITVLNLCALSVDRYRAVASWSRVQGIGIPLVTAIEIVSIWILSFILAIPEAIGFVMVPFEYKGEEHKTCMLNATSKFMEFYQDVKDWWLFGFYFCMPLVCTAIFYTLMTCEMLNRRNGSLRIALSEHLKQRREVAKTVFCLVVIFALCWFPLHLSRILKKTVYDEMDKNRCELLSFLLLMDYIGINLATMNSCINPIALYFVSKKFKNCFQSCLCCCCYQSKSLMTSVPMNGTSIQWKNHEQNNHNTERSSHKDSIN
Nature of the test: Ability to inhibit [125I]ET1 binding to the Endothelin A receptor from porcine lung membranes was evaluated. It counts as tissue-based.

Structures are written as SMILES. Starred links: 1 amine or outer side, 2 acyl side, 3 side chain; linkers in the order of their positions; H or OH if unused. Residues, ends and D or L forms follow the SMILES beside them. Suc = O=C(CCC(=O)[*:2])[*:1] A value given as a limit tells only on which side of the number the result lay.

Usually IC50 stands for the midpoint of a concentration-inhibition curve. Lower therefore signals greater potency in that assay. For the compound `Cc1cc(C)cc(C(=O)N(C)[C@H](Cc2ccc(-c3ccccc3)cc2)C(=O)N[C@@H](Cc2c[nH]c3ccccc23)C(=O)O)c1`, the IC50 in test [1] was greater than 10000 nM.
What is called Ki is the equilibrium dissociation constant of an inhibitor or competing ligand from its target. Low values mean a stronger hold on the target, high ones a looser hold on the target. The compound `Cc1cc(C)cc(C(=O)N(C)[C@H](Cc2ccccc2)C(=O)N[C@@H](Cc2c[nH]c3ccccc23)C(=O)O)c1` returned an IC50 in test [1] of 2000 nM. Also, the Ki in test [2] came to 36 nM; in test [3], 11000 nM.
Consider `O=C(N[C@@H](Cc1c[nH]c2ccccc12)C(=O)O)C1CC1c1ccccc1` (stereo not given in full), for which affinity in test [2] was put at a Ki of 16 nM.
Consider `CC[C@H](C)[C@H](NC(=O)[C@H](CC(=O)O)NC(=O)[C@H](CC(C)C)NC(=O)[C@H](Cc1cnc[nH]1)NC(=O)[C@H](C)NC(=O)[C@H](Cc1ccccc1)NC(=O)CNC(=O)[C@@H](NC(=O)[C@H](C)NC(=O)[C@H](CCC(=O)O)NC(=O)CCC(=O)O)C(C)C)C(=O)N[C@H](C(=O)N[C@@H](Cc1c[nH]c2ccccc12)C(=O)O)[C@@H](C)CC` (Suc-EAVGFAHLDIIW-OH), for which the Ki came to 11 nM in test [2] and 5000 nM in test [3].
Take `CC[C@H](C)[C@H](NC(=O)CNC(=O)[C@H](CC(C)C)NC(=O)[C@H](Cc1cnc[nH]1)NC(=O)[C@H](C)NC(=O)[C@H](Cc1ccccc1)NC(=O)[C@H](Cc1ccc(O)cc1)NC(=O)[C@@H](NC(=O)[C@H](C)NC(=O)[C@H](CCC(=O)O)NC(=O)CCC(=O)O)C(C)C)C(=O)N[C@H](C(=O)N[C@@H](Cc1c[nH]c2ccccc12)C(=O)O)[C@@H](C)CC` (Suc-EAVYFAHLGIIW-OH): the values for the Ki in test [2] and in test [3] were 0.25 nM and 96 nM, respectively.
As to `CC[C@H](C)[C@H](NC(=O)[C@H](CC(=O)O)NC(=O)[C@H](CC(C)C)NC(=O)[C@H](Cc1c[nH]cn1)NC(=O)[C@H](C)NC(=O)[C@H](Cc1ccccc1)NC(=O)[C@H](Cc1ccc(O)cc1)NC(=O)CNC(=O)[C@H](C)NC(=O)[C@H](CCC(=O)O)NC(=O)CCC(=O)O)C(=O)N[C@H](C(=O)N[C@@H](Cc1c[nH]c2ccccc12)C(=O)O)[C@@H](C)CC` (Suc-EAGYFAHLDIIW-OH), the Ki came out at 0.91 nM in test [2] and 1300 nM in test [3].
Turning to `CC[C@H](C)[C@H](NC(=O)[C@H](CC(=O)O)NC(=O)[C@H](CC(C)C)NC(=O)[C@H](Cc1c[nH]cn1)NC(=O)[C@H](C)NC(=O)[C@H](Cc1ccccc1)NC(=O)[C@H](Cc1ccc(O)cc1)NC(=O)[C@@H](NC(=O)[C@H](C)NC(=O)[C@H](CCC(=O)O)NC(=O)CCC(=O)O)C(C)C)C(=O)N[C@H](C(=O)N[C@@H](Cc1c[nH]c2ccccc12)C(=O)O)[C@@H](C)CC` (Suc-EAVYFAHLDIIW-OH), the figures for the Ki in test [2] and in test [3] were 0.077 nM and 620 nM, respectively.
Consider `CC[C@H](C)[C@H](NC(=O)[C@H](CC(=O)O)NC(=O)[C@H](CC(C)C)NC(=O)[C@H](Cc1cnc[nH]1)NC(=O)[C@H](C)NC(=O)[C@H](Cc1ccccc1)NC(=O)[C@H](Cc1ccc(O)cc1)NC(=O)[C@@H](NC(=O)[C@H](C)NC(=O)[C@H](CCC(=O)O)NC(=O)CCC(=O)O)C(C)C)C(=O)NCC(=O)N[C@@H](Cc1c[nH]c2ccccc12)C(=O)O` (Suc-EAVYFAHLDIGW-OH), for which the Ki was 5200 nM in test [2] and greater than 10000 nM in test [3].
Turning to `CC[C@H](C)[C@H](NC(=O)[C@H](CC(=O)O)NC(=O)[C@H](CC(C)C)NC(=O)[C@H](Cc1cnc[nH]1)NC(=O)[C@@H]1CSSC[C@H](N)C(=O)N[C@@H](CO)C(=O)N[C@H]2CSSC[C@H](NC(=O)[C@H](CCC(=O)O)NC(=O)[C@H](CCCCN)NC(=O)[C@H](CC(=O)O)NC(=O)[C@H](CCSC)NC(=O)[C@H](CC(C)C)NC(=O)[C@H](CO)NC(=O)[C@H](CO)NC2=O)C(=O)N[C@@H](C(C)C)C(=O)N[C@@H](Cc2ccc(O)cc2)C(=O)N[C@@H](Cc2ccccc2)C(=O)N1)C(=O)N[C@H](C(=O)N[C@@H](Cc1c[nH]c2ccccc12)C(=O)O)[C@@H](C)CC` [ENDOTHELIN], the affinity in test [3], expressed as Ki, was 0.04 nM.
Regarding `CC[C@H](C)[C@H](NC(=O)[C@H](CC(=O)O)NC(=O)[C@H](CC(C)C)NC(=O)CNC(=O)[C@H](C)NC(=O)[C@H](Cc1ccccc1)NC(=O)[C@H](Cc1ccc(O)cc1)NC(=O)[C@@H](NC(=O)[C@H](C)NC(=O)[C@H](CCC(=O)O)NC(=O)CCC(=O)O)C(C)C)C(=O)N[C@H](C(=O)N[C@@H](Cc1c[nH]c2ccccc12)C(=O)O)[C@@H](C)CC` (Suc-EAVYFAGLDIIW-OH), the Ki in test [2] was 1 nM; in test [3], 250 nM.
Take `CC[C@H](C)[C@H](NC(=O)[C@H](CC(=O)O)NC(=O)[C@H](CC(C)C)NC(=O)[C@H](Cc1cnc[nH]1)NC(=O)CNC(=O)[C@H](Cc1ccccc1)NC(=O)[C@H](Cc1ccc(O)cc1)NC(=O)[C@@H](NC(=O)[C@H](C)NC(=O)[C@H](CCC(=O)O)NC(=O)CCC(=O)O)C(C)C)C(=O)N[C@H](C(=O)N[C@@H](Cc1c[nH]c2ccccc12)C(=O)O)[C@@H](C)CC` (Suc-EAVYFGHLDIIW-OH): the inhibitory constant (Ki) worked out at 5.3 nM in test [2] and 2000 nM in test [3].
Take `Cc1cc(C)cc(C(=O)N(C)[C@H](Cc2ccccc2)C(=O)NCCc2c[nH]c3ccccc23)c1`: the IC50 in test [1] amounted to 800 nM. The compound also yielded a Ki in test [2] of 5 nM.
For the compound `CC[C@H](C)[C@H](NC(=O)[C@H](CC(=O)O)NC(=O)[C@H](CC(C)C)NC(=O)[C@H](Cc1c[nH]cn1)NC(=O)[C@H](C)NC(=O)CNC(=O)[C@H](Cc1ccc(O)cc1)NC(=O)[C@@H](NC(=O)[C@H](C)NC(=O)[C@H](CCC(=O)O)NC(=O)CCC(=O)O)C(C)C)C(=O)N[C@H](C(=O)N[C@@H](Cc1c[nH]c2ccccc12)C(=O)O)[C@@H](C)CC` (Suc-EAVYGAHLDIIW-OH), the figures for the inhibition constant Ki in test [2] and in test [3] were 260 nM and greater than 10000 nM, respectively.
In the case of `CC[C@H](C)[C@H](NC(=O)[C@H](CC(=O)O)NC(=O)CNC(=O)[C@H](Cc1c[nH]cn1)NC(=O)[C@H](C)NC(=O)[C@H](Cc1ccccc1)NC(=O)[C@H](Cc1ccc(O)cc1)NC(=O)[C@@H](NC(=O)[C@H](C)NC(=O)[C@H](CCC(=O)O)NC(=O)CCC(=O)O)C(C)C)C(=O)N[C@H](C(=O)N[C@@H](Cc1c[nH]c2ccccc12)C(=O)O)[C@@H](C)CC` (Suc-EAVYFAHGDIIW-OH), the Ki in test [2] was 5.9 nM; in test [3], greater than 10000 nM.
`CC[C@H](C)[C@H](NC(=O)CNC(=O)[C@H](CC(=O)O)NC(=O)[C@H](CC(C)C)NC(=O)[C@H](Cc1cnc[nH]1)NC(=O)[C@H](C)NC(=O)[C@H](Cc1ccccc1)NC(=O)[C@H](Cc1ccc(O)cc1)NC(=O)[C@@H](NC(=O)[C@H](C)NC(=O)[C@H](CCC(=O)O)NC(=O)CCC(=O)O)C(C)C)C(=O)N[C@@H](Cc1c[nH]c2ccccc12)C(=O)O` (Suc-EAVYFAHLDGIW-OH): the Ki is 180 nM in test [2] and greater than 10000 nM in test [3].
On the same counts, the results for `CC[C@H](C)[C@H](NC(=O)[C@H](CC(=O)O)NC(=O)[C@H](CC(C)C)NC(=O)[C@H](Cc1cnc[nH]1)NC(=O)[C@H](C)NC(=O)[C@H](Cc1ccccc1)NC(=O)[C@H](Cc1ccc(O)cc1)NC(=O)[C@@H](NC(=O)[C@H](C)NC(=O)[C@H](CCC(=O)O)NC(=O)CCC(=O)O)C(C)C)C(=O)N[C@H](C(=O)NCC(=O)O)[C@@H](C)CC` (Suc-EAVYFAHLDIIG-OH) are greater than 10000 nM and greater than 10000 nM.

(Values after ChEMBL document CHEMBL1129770 (Bioorg Med Chem Lett, 1996).)
